Patent US12662491B2 (Redona Therapeutics, Inc., priority 2020, dated 2026)
pIC50: −log10 of the molar value. Like-named read-outs stand apart in the source and are kept apart here.

Biological target: T1, Zcchc11 enzyme (Homo sapiens, UniProt Q5TAX3)
T1 construct: made in house; host or cells: HEK293 cells (Zcchc11); E. coli Rosetta II (LIN28A)
T1 sequence (Q5TAX3 212-1420): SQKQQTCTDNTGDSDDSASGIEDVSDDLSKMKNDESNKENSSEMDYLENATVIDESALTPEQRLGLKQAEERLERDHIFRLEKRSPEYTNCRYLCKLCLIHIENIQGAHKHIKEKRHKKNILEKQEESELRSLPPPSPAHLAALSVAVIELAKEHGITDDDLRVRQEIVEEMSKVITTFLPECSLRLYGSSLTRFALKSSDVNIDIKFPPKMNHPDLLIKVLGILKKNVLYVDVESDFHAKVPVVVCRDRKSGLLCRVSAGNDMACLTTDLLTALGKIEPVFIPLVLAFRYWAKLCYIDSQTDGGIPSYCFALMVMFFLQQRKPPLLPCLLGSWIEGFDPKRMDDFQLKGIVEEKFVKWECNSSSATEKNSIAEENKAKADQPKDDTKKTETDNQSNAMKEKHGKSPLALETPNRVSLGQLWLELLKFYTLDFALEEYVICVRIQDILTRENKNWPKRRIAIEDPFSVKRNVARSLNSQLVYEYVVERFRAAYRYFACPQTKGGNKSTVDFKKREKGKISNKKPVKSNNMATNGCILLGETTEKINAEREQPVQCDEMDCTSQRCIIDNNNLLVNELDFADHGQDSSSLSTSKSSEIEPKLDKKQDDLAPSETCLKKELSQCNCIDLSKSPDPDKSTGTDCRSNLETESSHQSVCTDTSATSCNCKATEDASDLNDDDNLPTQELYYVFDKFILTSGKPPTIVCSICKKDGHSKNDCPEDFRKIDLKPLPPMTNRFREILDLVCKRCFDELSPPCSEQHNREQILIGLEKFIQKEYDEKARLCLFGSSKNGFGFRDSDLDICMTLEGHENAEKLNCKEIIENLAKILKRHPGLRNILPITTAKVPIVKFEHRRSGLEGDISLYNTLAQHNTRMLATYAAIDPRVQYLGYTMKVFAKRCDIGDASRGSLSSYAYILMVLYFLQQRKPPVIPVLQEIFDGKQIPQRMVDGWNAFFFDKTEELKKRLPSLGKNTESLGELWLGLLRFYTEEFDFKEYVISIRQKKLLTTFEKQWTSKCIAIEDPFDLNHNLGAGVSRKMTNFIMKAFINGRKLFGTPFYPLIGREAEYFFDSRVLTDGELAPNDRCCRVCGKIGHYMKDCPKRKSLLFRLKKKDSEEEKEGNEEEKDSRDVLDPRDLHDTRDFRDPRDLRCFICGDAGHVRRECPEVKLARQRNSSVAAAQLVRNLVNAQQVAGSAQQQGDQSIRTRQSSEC
Test: TUTase assay (Zcchc11 assay, Lin28a-dependent polyuridylation of pre-let-7)
Format: biochemical
Conditions: read-out: Potency Lin28a-dep Z11 IC50
Outline: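 Readout: time-dependent quench of 5′-fluorescein pre-let-7 (2 nM) as 3′-rhodamine A20 probe anneals to poly(U) tails. Enzyme 0.2 nM Zcchc11 (res. 212-1420), LIN28A 10 nM, UTP 5 uM; pH 7.3 HEPES, 150 mM KCl, 5 mM MgCl2, RT. 4-parameter IC50; 100% = DMSO, 0% = no UTP.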

[1] = Lin28a-dependent Zcchc11 (Z11) TUTase assay
[2] = Lin28a-dependent Zcchc11 (Z11) TUTase activity
[3] = LIN28A 10 nM, Zcchc11 0.2 nM, 5′-fluorescein pre-let-7 miRNA 2 nM, UTP 5 uM, room temperature, 30 minutes pre-incubation

SMILES	pIC50 [1]	pIC50 [2]	also measured
COc1ccc(C2C[C@H](COc3nc(OC)ccc3Cl)N(c3cc4c(cc3Cl)c(=O)c(C(=O)O)cn4-c3ccc(N4CC(N(C)C)C4)nc3)C2)cn1 (stereo partly drawn) [Example 636, 6-chloro-7-((2R)-2-(((3-chloro-6-methoxypyridin-2-yl)oxy)methyl)-4-(6-methoxypyridin-3-yl)pyrrolidin-1-yl)-1-(6-(3-(dimethylamino)azetidin-1-yl)pyridin-3-yl)-4-oxo-1,4-dihydroquinoline-3-carboxylic acid]	≥ 6.00	–	–
COc1ccc(F)c(OC[C@H]2C[C@H]3C[C@H]3N2c2cc3c(cc2F)c(=O)c(C(=O)O)cn3-c2ccc(N(C)C)nc2)n1 [Compound 268, 1-(6-(dimethyl-amino)pyridin-3-yl)-6-fluoro-7-((1R,3R,5R)-3-(((3-fluoro-6-methoxy-pyridin-2-yl)oxy)methyl)-2-azabicyclo [3.1.0]hexan-2-yl)-4-oxo-1,4-dihydro-quinoline-3-carboxylic acid]	–	≥ 6.00	–
COc1ccc(COc2ccc(-n3cc(C(=O)O)c(=O)c4cc(F)c(N5CCC[C@@H]5COc5cccnn5)cc43)c(F)c2)cc1 [Compound 138, (R)-6-fluoro-1-(2-fluoro-4-((4-methoxy-benzyl)oxy)phenyl)-4-oxo-7-(2-((pyridazin-3-yloxy)methyl)pyrrolidin-1-yl)-1,4-dihydro-quinoline-3-carboxylic acid]	–	≥ 6.00	–
CN(C)C1CN(c2ccc(-n3cc(C(=O)O)c(=O)c4cc(Cl)c(N5[C@@H](COc6nc(OC7CC7)ccc6Cl)C[C@H]6C[C@H]65)cc43)cn2)C1 [Compound 270, 6-chloro-7-((1R,3R,5R)-3-(((3-chloro-6-cycloprop-oxypyridin-2-yl)oxy)methyl)-2-azabicyclo [3.1.0]hexan-2-yl)-1-(6-(3-(dimethyl-amino)azetidin-1-yl)pyridin-3-yl)-4-oxo-1,4-dihydro-quinoline-3-carboxylic acid]	–	≥ 6.00	–
COc1ccc(Cl)c(OC[C@H]2C[C@@H]3C[C@@H]3N2c2cc3c(cc2F)c(=O)c(C(=O)O)cn3-c2ccc(N3CC(N(C)C)C3)nc2)n1 [Example 74, 7-[(1S,3R,5S)-3-{[(3-chloro-6-methoxypyridin-2-yl)oxy]methyl}-2-azabicyclo[3.1.0]hexan-2-yl]-1-{6-[3-(dimethylamino)azetidin-1-yl]pyridin-3-yl}-6-fluoro-4-oxo-1,4-dihydroquinoline-3-carboxylic acid]	–	–	pIC50 [3]: ≥ 6.00
CN(C)C1CN(c2ccc(-n3cc(C(=O)O)c(=O)c4cc(Cl)c(N5CCC6CC65COc5ncccc5Cl)cc43)cn2)C1 (stereo not shown) [Example 635, 6-chloro-7-(1-(((3-chloropyridin-2-yl)oxy)methyl)-2-azabicyclo[3.1.0]hexan-2-yl)-1-(6-(3-(dimethylamino)azetidin-1-yl)pyridin-3-yl)-4-oxo-1,4-dihydroquinoline-3-carboxylic acid]	≥ 6.00	–	–
CN(C)C1CN(c2ccc(-n3cc(C(=O)O)c(=O)c4cc(Cl)c(N5CC(C)(C)C[C@@H]5COc5ncccc5Cl)cc43)cn2)C1 [Example 58, 6-chloro-7-[(2R)-2-[[(3-chloropyridin-2-yl)oxy]methyl]-4,4-dimethylpyrrolidin-1-yl]-1-[6-[3-(dimethylamino)azetidin-1-yl]pyridin-3-yl]-4-oxoquinoline-3-carboxylic acid]	–	–	pIC50 [3]: ≥ 6.00
CN(C)C1CN(c2ccc(-n3cc(C(=O)O)c(=O)c4cc(Cl)c(N5CC6(CCC6)CC5COc5ncccc5Cl)cc43)cn2)C1 (stereo not shown) [Compound 226, 6-Chloro-7-(7-(((3-chloropyridin-2-yl)oxy)methyl)-6-azaspiro [3.4]octan-6-yl)-1-(6-(3-(dimethyl-amino)azetidin-1-yl)pyridin-3-yl)-4-oxo-1,4-dihydro-quinoline-3-carboxylic acid compound with formic acid (1:1)]	–	≥ 6.00	–
CN(C)C1CN(c2ccc(-n3cc(C(=O)O)c(=O)c4cc(C#N)c(N5C(=O)CC[C@@H]5COc5ncccc5Cl)cc43)cn2)C1 [Example 54, (R)-7-(2-(((3-chloropyridin-2-yl)oxy)methyl)-5-oxopyrrolidin-1-yl)-6-cyano-1-(6-(3-(dimethylamino)azetidin-1-yl)pyridin-3-yl)-4-oxo-1,4-dihydroquinoline-3-carboxylic acid]	–	–	pIC50 [3]: 4.30 to 5.00
CN(C)C1CN(c2ccc(-n3cc(C(=O)O)c(=O)c4cc(Cl)c(N5CC6(CC6)C[C@@H]5COc5ncccc5Cl)cc43)cn2)C1 [Compound 347, (R)-6-chloro-7-(6-(((3-chloropyridin-2-yl)oxy)methyl)-5-azaspiro[2.4]heptan-5-yl)-1-(6-(3-(dimethyl-amino)azetidin-1-yl)pyridin-3-yl)-4-oxo-1,4-dihydro-quinoline-3-carboxylic acid]	–	≥ 6.00	–
O=C(O)c1cn(C2CC(CO)C2)c2cc(N3CCC[C@@H]3COc3ccccn3)c(F)cc2c1=O (stereo partly drawn) [Compound 165, (R)-6-fluoro-1-(3-(hydroxy-methyl)cyclo-butyl)-4-oxo-7-(2-((pyridin-2-yloxy)methyl)pyrrolidin-1-yl)-1,4-dihydro-quinoline-3-carboxylic acid]	–	4.30 to 5.00	–
CS(=O)(=O)Nc1ccc(-n2cc(C(=O)O)c(=O)c3cc(F)c(N4CCC[C@@H]4COc4ccccn4)cc32)cc1 [Example 371, (R)-6-fluoro-1-(4-(methyl-sulfonamido)phenyl)-4-oxo-7-(2-((pyridin-2-yloxy)methyl)pyrrolidin-1-yl)-1,4-dihydro-quinoline-3-carboxylic acid]	≥ 6.00	–	–

Continued, in another order:

pIC50 [1]	pIC50 [2]	SMILES	also measured
≥ 6.00	–	Nc1ccc(-n2cc(C(=O)O)c(=O)c3cc(Cl)c(N4CCC[C@@H]4COc4ncccc4Cl)cc32)c(F)n1 [Example 518, (R)-1-(6-amino-2-fluoropyridin-3-yl)-6-chloro-7-(2-(((3-chloropyridin-2-yl)oxy)methyl)pyrrolidin-1-yl)-4-oxo-1,4-dihydroquinoline-3-carboxylic acid]	–
5.00 to 6.00	–	Cc1cccnc1OC[C@H]1CCCN1c1cc2c(cc1Cl)c(=O)c(C(=O)O)cn2C1(C)CCOCC1 [Example 459, (R)-6-chloro-7-(2-(((3-methylpyridin-2-yl)oxy)methyl)pyrrolidin-1-yl)-1-(4-methyltetra-hydro-2H-pyran-4-yl)-4-oxo-1,4-dihydroquinoline-3-carboxylic acid]	–
≥ 6.00	–	N#Cc1cc2c(=O)c(C(=O)O)cn(-c3cnccn3)c2cc1N1CCC[C@@H]1COc1ncccc1Cl [Example 538, (R)-7-(2-(((3-chloropyridin-2-yl)oxy)methyl)pyrrolidin-1-yl)-6-cyano-4-oxo-1-(pyrazin-2-yl)-1,4-dihydroquinoline-3-carboxylic acid]	–
–	≥ 6.00	CN(C)C1CN(c2ccc(-n3cc(C(=O)O)c(=O)c4cc(Cl)c(N5CCC[C@@H]5COc5ncccc5Cl)cc43)cn2)C1 [Compound 318, 6-Chloro-7-[(2R)-2-[[(3-chloropyridin-2-yl)oxy]methyl]pyrrolidin-1-yl]-1-[6-[3-(dimethyl-amino)azetidin-1-yl]pyridin-3-yl]-4-oxoquinoline-3-carboxylic acid]	–
≥ 6.00	–	Cc1cccnc1OC[C@H]1CCCN1c1cc2c(cc1Cl)c(=O)c(C(=O)O)cn2C1(C)CC1 [Example 460, (R)-6-chloro-1-(1-methylcyclo-propyl)-7-(2-(((3-methylpyridin-2-yl)oxy)methyl)pyrrolidin-1-yl)-4-oxo-1,4-dihydroquinoline-3-carboxylic acid]	–
–	≥ 6.00	N#Cc1cccnc1OC[C@H]1CCCN1c1cc2c(cc1Cl)c(=O)c(C(=O)O)cn2-c1ccccc1 [Compound 110, (R)-6-chloro-7-(2-(((3-cyanopyridin-2-yl)oxy)methyl)pyrrolidin-1-yl)-4-oxo-1-phenyl-1,4-dihydro-quinoline-3-carboxylic acid]	–
≥ 6.00	–	CC(C)(O)c1ccc(-n2cc(C(=O)O)c(=O)c3cc(C#N)c(N4CCC[C@@H]4COc4ncccc4Cl)cc32)cn1 [Example 575, (R)-7-(2-(((3-chloropyridin-2-yl)oxy)methyl)pyrrolidin-1-yl)-6-cyano-1-(6-(2-hydroxypropan-2-yl)pyridin-3-yl)-4-oxo-1,4-dihydroquinoline-3-carboxylic acid]	–
